US9670162B2, “Mitochondrial aldehyde dehyrogenase-2 modulators and methods of use thereof” (The Board of Trustees of the Leland Stanford Junior …, priority 2013, dated 2017)
Numbering of substitutions follows the chain as printed.

Assays:
human ALDH2 wild type = biological target: T1, human ALDH2 wild type (Homo sapiens, UniProt P05091); assay: ALDH2 enzymatic assay (NADH at 340 nm), recombinant wild type enzyme; format: biochemical; parameters: key: −: no activation or inhibition; +: activation less than control 1; ++: activation similar to control 1, within 10%; +++: activation more than control 1 and less than control (compound 161); ++++: activation similar to compound 161, within 10%; details: activation relative to benchmarks control 1 and compound 161
T1 construct: His-tag (pTrcHis vector) (N); made in house; host or cells: E. coli BL21
T1 sequence (P05091 18-517): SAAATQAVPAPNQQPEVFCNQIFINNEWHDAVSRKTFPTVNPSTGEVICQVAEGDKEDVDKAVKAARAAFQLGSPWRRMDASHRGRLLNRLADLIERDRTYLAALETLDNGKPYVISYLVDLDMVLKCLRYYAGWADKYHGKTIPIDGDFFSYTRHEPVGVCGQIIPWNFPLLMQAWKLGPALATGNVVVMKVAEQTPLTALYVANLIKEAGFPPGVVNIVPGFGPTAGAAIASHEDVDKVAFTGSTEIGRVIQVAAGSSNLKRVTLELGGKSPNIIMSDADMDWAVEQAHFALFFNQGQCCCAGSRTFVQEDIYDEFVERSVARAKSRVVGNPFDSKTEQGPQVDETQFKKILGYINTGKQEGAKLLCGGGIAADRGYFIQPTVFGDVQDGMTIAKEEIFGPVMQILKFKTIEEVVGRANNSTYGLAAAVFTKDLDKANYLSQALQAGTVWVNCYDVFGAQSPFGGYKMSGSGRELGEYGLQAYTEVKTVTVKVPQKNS
Excerpt: (§1) ALDH2 catalyzes the oxidative reaction of substrate acetaldehyde to acetic acid using NAD^+ as a cofactor. Enzymatic activity, or catalytic rate, of aldehyde dehydrogenase (ALDH2) can be measured spectrophotometrically at UV wavelength λ340 nm by the accumulation of reduced product NADH derived from NAD^+. […] This method is well-established in the literature [e.g. D. K. Rex, W. F. Bosron, J. E. Smialek, T. K. Li, Alcohol Clin Exp Res 9, 147 (1985)].
(§2) Full-length wild type human ALDH2 cDNA was purchased from ATCC (No. MGC-1806. GenBank ID: BC002967). The 18-amino acid mitochondria transport signal sequence was removed by PCR and cloned into the NheI/HindIII sites of a His-tag vector, pTrcHis, using standard molecular cloning techniques. The human ALDH2* cDNA construct containing the Asian E487K mutation was obtained by site-directed mutagenesis to create the E487K substitution of the wild type ALDH2. Both human clones were designed to express a recombinant protein with the His-tag at the N-terminus of the protein. For the co-expression experiments of human ALDH2 wild type and ALDH2*2 heterotetramers, a wild type ALDH2 gene and a ALDH2 E487K gene were inserted separately into the two multiple cloning sites of pETDuet-1 vector. (Novagen, Calif., USA). All the vectors were transformed into BL21 E. coli host cells and subjected to 0.5 mM IPTG induction for protein expression at 30° C. Purifications of the recombinant proteins by affinity nickel columns (HisTrap, GE Healthy Science, USA) were carried out using standard protocols according to manufacturer's instructions (Novagen, USA).
(§3) Control 1 and compound 161 are used as benchmarks and the symbols have the following representation: […]

[1] = biological target: T2, human ALDH2*2 recombinant mutant enzyme (E487K) (Homo sapiens, UniProt P05091, E504K); assay: ALDH2 enzymatic assay (NADH at 340 nm), recombinant mutant enzyme; format: biochemical; parameters: key: −: no activation or inhibition; +: activation less than control 1; ++: activation similar to control 1, within 10%; +++: activation more than control 1 and less than control (compound 161); ++++: activation similar to compound 161, within 10%; details: activation relative to benchmarks control 1 and compound 161
T2 construct: His-tag (pTrcHis vector) (N); made in house; host or cells: E. coli BL21
T2 sequence (P05091 18-517 E504K): T1 sequence (P05091 18-517) with E487K
Excerpt: as §1, §2, §3

Row | ALDH2 (wild-type) (human ALDH2 wild type) | ALDH2 (mutant) [1] | Compound
1 | + | + | O=C(NCc1ccc(=O)[nH]c1)c1c(Cl)ccnc1OCC1CC1 [Compound 254]
2 | + | + | COc1ccc(CNC(=O)c2cc(Br)ccc2C)cc1F [Compound 123]
3 | + | + | COc1cc(CNC(=O)c2c(Cl)ccnc2OCC2CC2)ccc1F [Compound 172]
4 | − | − | O=C(NCc1ccc(O)c(F)c1)c1c(Cl)ccnc1OCC1CC1 [Compound 248]
5 | + | + | COc1ccc(CNC(=O)c2c(C(F)(F)F)ccnc2OCC2CC2)cc1F [Compound 225]
6 | ++ | +++ | CCOc1cccc(Cl)c1C(=O)NCc1ccc(OC)c(F)c1 [Compound 139]
7 | + | ++ | COc1ccc(CNC(=O)c2c(Cl)cncc2OCC(C)C)cc1F [Compound 240]
8 | ++ | ++ | COc1ccc(CNC(=O)c2c(Cl)cccc2NCC(C)O)cc1F (stereo not drawn) [Compound 159]
9 | ++ | ++ | COc1cc(F)c(CNC(=O)c2c(Cl)ccnc2Cl)cc1F [Compound 176]
10 | − | − | CN(C)c1ccc(CNC(=O)c2c(Cl)cccc2Cl)cc1 [Compound 111]
11 | + | + | COc1ccc(CNC(=O)c2c(C(F)(F)F)ccnc2OCC2CCC2)cc1F [Compound 229]
12 | ++ | ++ | COc1ccc(CNC(=O)c2c(Cl)cccc2OCCN(C)C)cc1F [Compound 165]
13 | + | + | O=C(NCc1ccc2ncoc2c1)c1c(Cl)ccnc1OCC1CC1 [Compound 259]
14 | + | + | COc1ccc(CNC(=O)c2c(C)ccnc2OCC(C)C)cc1F [Compound 232]
15 | + | ++ | COc1ccc(CNC(=O)c2c(C)cccc2NCC(C)C)cc1F [Compound 117]
16 | + | + | COc1ccc(CNC(=O)c2c(Cl)cccc2NC2CCCC2)cc1F [Compound 148]
17 | +++ | ++ | COc1ccc(CNC(=O)c2c(Cl)cccc2OC(C)C2CC2)cc1F (stereo not drawn) [Compound 150]
18 | + | + | CCC(CC)Oc1nccc(C(F)(F)F)c1C(=O)NCc1ccc(OC)c(F)c1 [Compound 228]
19 | ++++ | ++++ | COc1cc(F)c(CNC(=O)c2c(Cl)ccnc2OCC2CC2)cc1F [Compound 190]
20 | ++ | +++ | CCC(CC)Oc1cccc(Cl)c1C(=O)NCc1ccc(OC)c(F)c1 [Compound 142]
21 | ++++ | ++++ | COc1ccc(CNC(=O)c2c(Cl)ccnc2OC2CCC2)cc1F [Compound 197]
22 | + | − | O=C1OCc2cc(CNC(=O)c3c(Cl)ccnc3OCC3CC3)ccc21 [Compound 258]
23 | + | + | CS(=O)(=O)c1ccc(CNC(=O)c2c(Cl)cccc2Cl)cc1 [Compound 112]
24 | + | + | COc1ccc(CNC(=O)c2c(Cl)cccc2OCC(C)(C)N(C)C)cc1F [Compound 167]

Row | ALDH2 (wild-type) (human ALDH2 wild type) | ALDH2 (mutant) [1] | Compound
25 | + | ++ | COc1ccc(CNC(=O)c2c(Cl)ccnc2Cl)c(F)c1F [Compound 174]
26 | + | ++ | CCC(C)Sc1nccc(Cl)c1C(=O)NCc1ccc(OC)c(F)c1 (stereo not drawn) [Compound 217]
27 | − | − | O=C(NCc1ccc2ncsc2c1)c1c(Cl)ccnc1OCC1CC1 [Compound 264]
28 | +++ | +++ | COc1ccc(CNC(=O)c2c(Cl)cccc2OC(C)C)cc1F [Compound 140]
29 | − | − | COc1ccc(CN(C)C(=O)c2c(Cl)ccnc2OCC2CC2)cc1F [Compound 247]
30 | ++ | +++ | COc1ccc(CNC(=O)c2c(Cl)cccc2OC)cc1F [Compound 138]
31 | − | − | CC(C)Oc1ccc(CNC(=O)c2c(Cl)ccnc2Cl)cc1F [Compound 177]
32 | + | + | COc1ccc(CNC(=O)c2c(C)ccnc2OC(C)C)cc1F [Compound 233]
33 | + | + | COc1ccc(CNC(=O)c2c(Cl)ccnc2SC(C)C)cc1F [Compound 216]
34 | + | + | O=C(NCc1ccc(OC(F)(F)F)c(F)c1)c1c(Cl)ccnc1NCC1CC1 [Compound 191]
35 | + | + | CCC(CC)Oc1nccc(C)c1C(=O)NCc1ccc(OC)c(F)c1 [Compound 234]
36 | − | − | COc1ccc(CNC(=O)c2c(Cl)cccc2NCc2ccc(Cl)cc2)cc1F [Compound 130]
37 | + | + | COc1ccc(CNC(=O)c2c(Cl)ccnc2OCC2CC2)cc1C [Compound 256]
38 | ++++ | ++++ | COc1cc(F)c(CNC(=O)c2c(Cl)ccnc2OCC(C)C)cc1F [Compound 269]
39 | − | − | CC(C)Oc1ccc(CNC(=O)c2c(Cl)ccnc2OCC2CC2)cc1F [Compound 188]
40 | + | + | COc1ccc(CNS(=O)(=O)c2c(Cl)cccc2NCC2CC2)cc1F [Compound 163]
41 | + | + | COc1ccc(CNS(=O)(=O)c2c(Cl)cccc2Cl)cc1F [Compound 154]
42 | ++ | + | COc1ccc(CNC(=O)c2c(Cl)cccc2Oc2ccc(Cl)cc2)cc1F [Compound 137]
43 | + | + | COc1ccc(CNC(=O)c2c(Cl)cccc2Br)cc1Cl [Compound 104]
44 | +++ | +++ | CCCOc1cccc(Cl)c1C(=O)NCc1ccc(OC)c(F)c1 [Compound 147]
45 | ++++ | ++++ | COc1ccc(CNC(=O)c2c(Cl)cccc2OCC2(C)CC2)cc1F [Compound 151]
46 | − | + | COc1ccc(CNC(=O)c2c(NCCO)cccc2NCCO)cc1F [Compound 120]
47 | +++ | +++ | COc1ccc(CNC(=O)c2c(Cl)ccnc2OC)cc1F [Compound 192]
48 | + | ++ | O=C(NCc1ccc(OC(F)(F)F)c(F)c1)c1c(Cl)ccnc1OCC1CC1 [Compound 187]
